“Also recorded” adds a separate entry of the source.
Tests used:
[1] = target: FKBP-like binding domains with a F36V mutation (Homo sapiens, UniProt P62942, F37V); conditions: cells engineered to express FKBP-like binding domain fusion proteins; cited from earlier work
[2] = tested on: T-cells transduced with inducible CAR with modified FKBP12 domains; assay: AP1903-inducible CD19 CAR: signalling of transduced T-cells challenged with CD19 negative or positive targets; format: cell-based
From the text: FIG. 11—AP1903 homodimerizer inducible CAR. (a) AP1903 homodimerizer inducible CAR was constructed by using modified FKBP12 domains to constitute the heterodimerization motifs for both the antigen recognition component and the signalling component. The antigen recognition component recognizes CD19. (b) T-cells expressing this CAR along with non-transduced T-cells were stained with anti-Fc which recognizes the CAR spacer. The transduced T-cells expressed the CAR well. (c) Transduced T-cells were next challenged with increasing concentration of CID dimerizer AP1903 and challenged with either CD19 negative or CD19 positive target cells.
AP1903 is a synthetic chemical inducer of dimerization which binds to two mutated FKB12 domains (Clackson et al (1998). Proc. Natl. Acad. Sci. U.S.A 95, 10437-10442). An inducible CAR was developed based on this system, using the modified FKBP12 domains to constitute the heterodimerization domain of both the antigen recognition component and signalling component in the framework as described in Example 1 with the antigen recognition domain and the signalling domain co-expressed with a FMD-2A like sequence (FIG. 11a and SEQ ID No. 24). The FKBP12 domains were codon-wobbled to prevent homologous recombination. T-cells were transduced with this construct and challenged with target cells which were CD19 negative or positive.

[3] = tested on: T-cells transduced with split CD19 CAR with EcR and RXR heterodimerization motifs; assay: RSL1-inducible CD19 CAR: IL-2 release of transduced T-cells challenged with CD19 negative or positive targets; format: cell-based; conditions: CD19 negative or CD19 positive target cells; increasing concentration of RSL1
From the text: FIG. 10—RSL1 inducible CAR (a) an RSL1 inducible CAR was constructed by using retinoic acid receptor domains and ecodysone receptor domains to constitute the heterodimerization motifs for the antigen recognition component and the signalling component respectively. The antigen recognition component recognizes CD19. (b) T-cells expressing this CAR along with non-transduced T-cells were stained with anti-Fc which recognizes the CAR spacer. The transduced T-cells expressed the CAR well. (c) Transduced T-cells were next challenged with increasing concentration of RSL1 and challenged with either CD19 negative or CD19 positive target cells.
Signaling through the signaling component may be determined by a variety of methods known in the art. […] Functional readouts, such as clonal expansion of T cells, upregulation of activation markers on the cell surface, differentiation into effector cells and induction of cytotoxicity or cytokine secretion may also be utilised. As an illustration, in the present examples the inventors determined levels of interleukin-2 (IL-2) produced by T-cells expressing a receptor component and signalling component of the CAR signalling system according to the present invention upon binding of antigen to the receptor component in the presence of varying concentrations of CID. […]

FKBP-like binding domains with a F36V mutation, sequence (P62942 2-108 F37V): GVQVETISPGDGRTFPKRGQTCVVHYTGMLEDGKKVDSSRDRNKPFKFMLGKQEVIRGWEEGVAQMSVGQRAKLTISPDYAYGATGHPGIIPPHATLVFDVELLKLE

Compound	Selectivity of dimerization: FKBP-like (F36V) domains versus endogenous FKBP [1]	Response / signalling of AP1903-inducible CAR T-cells ([2]; CD19 negative or CD19 positive target cells, increasing concentration of AP1903)	Signalling of AP1903-inducible CAR T-cells at very high dimerizer concentration ([2]; very high concentration of dimerizer, CD19 positive targets)	IL-2 release / signalling of RSL1-inducible CAR T-cells [3]
CC[C@H](C(=O)N1CCCC[C@H]1C(=O)O[C@H](CCc1ccc(OC)c(OC)c1)c1cccc(OCC(=O)NCCNC(=O)COc2cccc([C@@H](CCc3ccc(OC)c(OC)c3)OC(=O)[C@@H]3CCCCN3C(=O)[C@@H](CC)c3cc(OC)c(OC)c(OC)c3)c2)c1)c1cc(OC)c(OC)c(OC)c1 [AP1903]	no interactions involving endogenous FKBP	responded only to CD19 positive targets in the presence of AP1903; also recorded: signal only in the presence of CID	signalling was inhibited; also recorded: signalling is reduced	
CCc1c(OC)cccc1C(=O)NN(C(=O)c1cc(C)cc(C)c1)C(C)(C)C [RSL1, N-(2-ethyl-3-methoxybenzoyl)-N′-(3,5-dimethylbenzoyl)-N′-tert-butylhydrazine]				Only CAR T-cells challenged with SupT1 targets in the presence of RSL1 released IL-2; also recorded: signal only in the presence of RSL1

Source: patent US10588967B2, “Chimeric antigen receptor (CAR) signalling system” (UCL BUSINESS PLC, priority 2014, dated 2020)
